Data set [1] relates to focal seizures in hippocampal kindled rats. Nature of the data set: Hippocampal kindling model. It is filed as in vivo, Sprague-Dawley rats. The following applies: hippocampal kindling model; not as effective as 4,4′-thiodianiline. From the text: Hippocampal Kindling Model
The hippocampal kindling model is an experimental seizure model used to simulate focal seizures. This model evaluates the capacity of a compound to affect both the expression and acquisition of focal seizures. In addition, kindled seizures provide a methodology for studying complex brain networks that may contribute to the spread and generalizations of seizures from a focus. The hippocampal kindling model has the advantage of being one of the only kindling models that can evaluate the temporal effects of an agent in a single animal. For this assessment, bipolar electrodes are surgically implanted in the ventral hippocampus of adult male Sprague-Dawley rats (275-300 g) under ketamine-xylazine anesthesia. Following a one-week recovery period, stage five behavioral seizures are induced by stimulating the rat 12 times per day with 50 Hz, 10 s train of 1 ms biphasic 200 μA pulses delivered every 30 min for six hours on alternating days. After five stimulus days, the animal has had 60 stimulations. A drug free control period with supramaximal stimulations is used to verify the stability of a stage five generalized seizure before the anticonvulsant activity of a drug is measured.
This screen is used to measure the capacity of the drug to prevent the expression of focal seizures. […] The animal is exposed to an initial stimulation of 20 μA; the stimulation is increased in 10 μA increments every one-two minutes until an afterdischarge is recorded. After the stability of the stage five seizure is established, the drug candidate is administered to the rats via intraperitoneal injection 15 minutes after the last control stimulation. Starting with the first dose, the anticonvulsant activity of the test agent is measured every thirty minutes for four hours. Following each stimulation, Racine seizure scores and afterdischarge durations are compared to control values to quantify the anti-convulsant activity of the agent. The Racine seizure scores vary from stage 1 to 5. The stages are characterized according to the following criteria: Stage 1—mouth and facial clonus, Stage 2—stage 1 and head nodding, Stage 3—stage 2 and forelimb clonus, Stage 4—stage 3 and rearing, Stage 5—stage 4 and repeated rearing and falling. Since a single animal is used, each rat serves as its own control.
4,4′-Thiodianiline was used in the rat hippocampal kindled rats to screen to measure its anticonvulsant potential. Doses of 12.5, 25, 50 and 100 mg/kg were evaluated at a minimum of seven time points (n=7 for each dose and each time point). […] After oral administration of the test compound stimulation, the Racine seizure scores and afterdischarge durations were measured and are shown below. The Racine seizure scores dropped from between a stage 4 and stage 5 seizure for control measurements to between a stage 1 and stage 2 seizure after treatment with 4,4′-thiodianiline.

Another data set deals with mice. The data set can be described thus: Minimal neurotoxicity in mice, rotorod test. The following applies: for toxicity: 100 mg/kg. On the technique in general: The rotarod test checks motor coordination on a turning rod.
The next data set has as its system rats. The data set can be described thus: Minimal neurotoxicity in rats, positional sense and gait and stance tests. It is filed as in vivo. To be noted: for toxicity: 250 mg/kg. From the text: If the rat experiences neurological toxicity, it will not be able to quickly lift its leg quickly back to a normal position.
In the gait and stance test, neurotoxicity is indicated by a circular or zigzag gait after administration of the test compound. In addition, ataxia, abnormal spread of the legs, abnormal posture, tremor hyperactivity, lack of exploratory behavior, somnolence, stupor, or catalepsy can indicate neurotoxicity.

Data set [2] relates to MES-induced seizure. Nature of the data set: Maximal Electroshock Seizure (MES) test in rats, oral administration. It is filed as in vivo. The following applies: for Percentage of rats in which the test compound prevented MES-induced seizure: 30 mg/kg oral; for Time to Peak Effect: MES test; for ED50: read-out: ED50 required to inhibit MES-induced seizure. The source says:
(§1) The Maximal Electroshock Seizure (MES) or Maximal Seizure Pattern Test
(§2) The MES is an experimental model for generalized tonic-clonic seizures that identifies compounds that prevent seizure spread. The MES model is highly reproducible and has a consistent endpoint. An advantage of this model is that the behavioral and electrographic seizures are consistent with those observed in humans.
(§3) In the MES test, the animal receives an electrical stimulus, 0.2 seconds in duration, via corneal electrodes primed with an electrolyte solution containing an anesthetic agent. The 0.2 second stimulation is generated with 150 mA in rats and 50 mA in mice at 60 Hz. […] In rats, the compound is administered orally, while mice receive the agent via intraperitoneal injection. The test endpoint, electrogenic seizure, is manifested as hindlimb tonic extension.
A full dose-response curve was also generated in rats to determine the ED50 value (n=8 at each time point). […] The ED50 of 4,4′-thiodianiline was evaluated in both rats and mice.

The test system of data set [3] is MES-induced seizure. Nature of the data set: Maximal Electroshock Seizure (MES) test in mice, intraperitoneal administration. It is filed as in vivo.
From the text: as §1, §2, §3

Another data set has as its system 6 Hz seizures. Nature of the data set: 6 Hz kindling model. It is filed as in vivo, mice. On the procedure:
The 6 Hz kindling model is another experimental seizure model that effectively detects compounds with anti-seizure activity. This screen is used to evaluate the ability of a compound to prevent the acquisition of focal seizures; in particular, the capacity of a compound to prevent the development of seizures induced by a low-frequency (6 Hz), long duration (three seconds) stimulus in electrode […] is evaluated. Several of the most promising compounds were evaluated in this screen to further characterize their anti-seizure activity.
In the 6 Hz kindling test, mice are implanted with corneal electrodes. The test compound is administered (i.p.) to the animal at 0.25, 0.5, 1, 2, or 4 hours prior seizure induction. The seizure is initiated by delivering a current (32 mA at 6 Hz for three seconds) to the animal through the corneal electrodes. The resulting psychomotor seizure is usually characterized by a minimal clonic phase followed by stereotyped, automatistic behaviors. This response is analogous to the aura of human patients with partial seizures.

Setting [4] is: rat, oral administration, at the time of peak effect, n=8.
[5] abbreviates: 30 mg/kg i.p., 0.5 h after administration.
The mark [6] stands for this setting: 30 mg/kg i.p., 4.0 h after administration.
Where [7] appears, read: 100 mg/kg i.p., 0.5 h after administration.
Setting [8] is: 100 mg/kg i.p., 4.0 h after administration.
[9] abbreviates: 300 mg/kg i.p., 0.5 h after administration.
The mark [10] stands for this setting: 300 mg/kg i.p., 4.0 h after administration.
Setting [11] is: 30 mg/kg i.p., 0.25 h after administration.
Where [12] appears, read: 30 mg/kg i.p., 1.0 h after administration.
Where [13] appears, read: 100 mg/kg i.p., 0.25 h after administration.
The mark [14] stands for this setting: 100 mg/kg i.p., 1.0 h after administration.
The mark [15] stands for this setting: 100 mg/kg i.p., 2.0 h after administration.

Where two headings read alike, the source gives them in different places.

As usually defined, the ED50 is the dose that gives a 50% effect, or the effect in half of the subjects.

Regarding `Nc1ccc(NC(=O)c2ccc(N)cc2)cc1` [4,4′-Diaminobenzanalide], the “expression of fully kindled seizures” value in data set [1] was “had the capacity to block the expression of fully kindled seizures”.
As for `Nc1ccc(C(=O)c2ccc(N)cc2)cc1` [4,4′-diaminobenzophenone], the neurotoxicity entry with mice (doses below 100 mg/kg) was “showed no neurotoxicity”. In addition, the acute neurotoxic effects entry with rats (0.25 to 24 hours after oral administration, doses as high as 500 mg/kg) is given as “None of the rats tested at any timepoints”. The “Percentage of rats in which the test compound prevented MES-induced seizure” value (from here on “Percentage of rats”) with MES-induced seizure [2] (0.25 h after administration) came out at 50%; with MES-induced seizure [2] (0.5 h after administration), 100%; with MES-induced seizure [2] (1.0 h after administration), 75%; with MES-induced seizure [2] (2.0 h after administration), 100%; in the data set on MES-induced seizure [2] (4.0 h after administration), 75%. Besides, the “Time to Peak Effect” value with MES-induced seizure [2] (rat, oral administration) is 1 h. Also, the ED50 in the data set on MES-induced seizure [2] (setting [4]) came to 7.15 mg/kg. Besides, the “Percentage of mice in which the test compound prevented MES-induced seizure” value in the data set on MES-induced seizure [3] (setting [5]) worked out at 0%; with MES-induced seizure [3] (setting [6]), 0%; in the data set with MES-induced seizure [3] (setting [7]), 100%; with MES-induced seizure [3] (setting [8]), 100%; in the data set on MES-induced seizure [3] (setting [9]), 100%; with MES-induced seizure [3] (setting [10]), 100%. The “Percentage of mice in which the test compound prevented seizure in the 6 Hz test” value (“Percentage of mice … in the 6 Hz test” for short) in the data set with 6 Hz seizures (setting [11]) is listed as 0%; with 6 Hz seizures (setting [5]), 0%; with 6 Hz seizures (setting [12]) it was 0%; in the data set on 6 Hz seizures (setting [13]) it was 100%; with 6 Hz seizures (setting [7]), 100%; with 6 Hz seizures (setting [14]), 100%. The “Percentage of mice … in the 6 Hz test” value in the data set with 6 Hz seizures (setting [15]) and in the data set on 6 Hz seizures (setting [8]) was 0% in each case.
Consider `Nc1ccc(Cc2ccc(N)cc2)cc1` [4,4′-methylenedianiline], for which the toxicity entry in the data set with mice and with rats was “no significant toxicity” each time. Moreover, the “Percentage of rats” value with MES-induced seizure [2] (0.25 h after administration) was 100%; with MES-induced seizure [2] (0.5 h after administration), 75%; with MES-induced seizure [2] (1.0 h after administration), 92%; with MES-induced seizure [2] (2.0 h after administration) it was 100%; in the data set with MES-induced seizure [2] (4.0 h after administration) it was 50%. Further, the ED50 in the data set with MES-induced seizure [2] (Rattus norvegicus, po) was found to be 10.6 ± 5.88 mg/kg. In addition, the “Time to Peak Effect” value in the data set on MES-induced seizure [2] (rat, oral administration) was determined as 1 h. The “Percentage of mice in which the test compound prevented MES-induced seizure” value worked out at 0% in the data set with MES-induced seizure [3] (setting [5]); 0% in the data set on MES-induced seizure [3] (setting [6]); 100% in the data set with MES-induced seizure [3] (setting [7]); 0% in the data set on MES-induced seizure [3] (setting [8]); 100% in the data set on MES-induced seizure [3] (setting [9]); 100% in the data set on MES-induced seizure [3] (setting [10]). The “Percentage of mice … in the 6 Hz test” value is 0% with 6 Hz seizures (setting [11]); 0% in the data set with 6 Hz seizures (setting [5]); 0% in the data set on 6 Hz seizures (setting [12]); 100% with 6 Hz seizures (setting [13]); 100% in the data set on 6 Hz seizures (setting [7]); 100% in the data set on 6 Hz seizures (setting [14]). For the same compound, the “Percentage of mice … in the 6 Hz test” value with 6 Hz seizures (setting [15]) and in the data set on 6 Hz seizures (setting [8]) was 0% in each case.
On to `Nc1ccc(Nc2cccc(N)c2)cc1` [(3-aminophenyl)-(4-aminophenyl) amine], for which the toxicity result in the data set on mice and in the data set on rats was “no significant toxicity” throughout. The “Percentage of rats” value is 0% in the data set on MES-induced seizure [2] (0.25 h after administration); 50% in the data set with MES-induced seizure [2] (0.5 h after administration); 75% in the data set with MES-induced seizure [2] (1.0 h after administration); 50% with MES-induced seizure [2] (2.0 h after administration); 50% in the data set with MES-induced seizure [2] (4.0 h after administration). Also, in the data set on MES-induced seizure [2] (rat, oral administration), the “Time to Peak Effect” value was found to be 2 h. Besides, in the data set with MES-induced seizure [2] (setting [4]), the 50% effective dose (ED50) was determined as 31.7 ± 24.4 mg/kg. The “Percentage of mice in which the test compound prevented MES-induced seizure” value with MES-induced seizure [3] (setting [5]) is 0%; in the data set with MES-induced seizure [3] (setting [6]) it was 0%; in the data set on MES-induced seizure [3] (setting [7]), 100%; with MES-induced seizure [3] (setting [8]), 100%; with MES-induced seizure [3] (setting [9]), 100%; in the data set with MES-induced seizure [3] (setting [10]), 100%.
